Results on two compounds are retold here after patent US12173089B2, “Inhibition of pulmonary fibrosis with nutlin-3A and peptides” (BOARD OF REGENTS, THE UNIVERSITY OF TEXAS SYSTEM, priority 2013, dated 2024).

Assay [1] relates to fibroblasts isolated from the lungs of mice. The experiment in a line: Western blotting and quantitative RT-PCR of fibroblasts isolated from lungs of treated BLM mice. Type of assay: in vivo. The following applies: fibroblasts from BLM mice treated with nutlin-3a. The protocol: FIGS. 12A-12C. CSP-4 or nutlin-3a (NTL) inhibits proliferation of FL-fibroblasts. Mice were exposed to BLM for 14 d to induce significant lung fibrosis or to saline (fibrosis controls). 14 d later, mice exposed to BLM were treated with CSP-4 or CP, or nutlin-3a (see FIGS. 10A-10D/11A-11D). (FIG. 12A): Lung sections (d 21 after BLM injury) were subjected to immunohistochemistry (IHC) for Ki-67 to assess proliferation. One representative example is shown (n=9). Fibroblasts were isolated from the lungs of mice exposed to saline, BLM or BLM+nutlin-3a (as described in FIG. 11A) were tested for the changes in expression of col-I, p53 and downstream uPA and PAI-1 proteins by Western blotting (FIG. 12B):, and mRNA by quantitative RT-PCR (FIG. 12C).
Mice exposed to BLM 14 days earlier were treated with CSP-4 or its control (CP) or Nutlin-3a IV (as in Examples IX and X). Seven days later lung sections were obtained and subjected to IHC for Ki-67 to assess cell proliferation (see FIG. 12A). […] Fibroblasts isolated from the lungs of these animals (as described in Example X) were tested for the changes in expression of col-I, p53 and downstream uPA and PAI-1 proteins by Western blotting, and mRNA by quantitative RT-PCR (see FIGS. 12B-12C).

For assay [2], the system named is fibrotic lung tissue explants. The experiment in a line: Ex vivo treatment of fibrotic lung tissue explants of BLM mice, col-I and α-SMA by Western blotting. The following applies: CSP-4 10 nM, nutlin-3a 10 μM, 72 h. In kind it is cell-based. The protocol: FIG. 13. Inhibition of BLM-induced pulmonary fibrosis by ex vivo treatment of WT mice lung tissues with CSP-4 or nutlin-3a (NTL). Mice were exposed to intranasal BLM for 21 d to induce pulmonary fibrosis. These mice (n=3) were sacrificed, lungs were excised, chopped into small pieces and placed in culture dishes with DMEM medium containing 10% fetal bovine serum. The tissue samples were later treated with CSP-4 (10 nM), control peptide (CP) and nutlin-3a (TL) (10 μM) for 72 h. Conditioned medium and tissue lysates were prepared and analyzed for changes in col-I, a-SMA and β-actin by Western blotting.
Mice were exposed to intranasal BLM for 21 d to induce pulmonary fibrosis, sacrificed, and their lungs excised and chopped into small pieces and placed into culture medium. These tissue samples were thereafter treated with 10 nM CSP-4 peptide, control peptide (CP) or nutlin-3a for 72 h. Conditioned medium and tissue lysates were and analyzed for changes in col-I and α-SMA by Western blotting. […] The present inventors' results provided herein and in recent reports (e.g., Bhandary et al, 2012, 2013, supra), strongly support the conception that p53-mediated downstream changes in uPA and PAI-1 regulates viability of FL-fibroblasts.
Background: A western blot detects proteins with antibodies after separation by electrophoresis.

In assay [3] the test system is FL(IPF)-tissues. The assay is described as follows: Ex vivo treatment of FL-lung tissues from IPF patients. Type of assay: cell-based, human. The settings on record: for PAI-1 levels in fibroblasts isolated from IPF explants / Phosphorylation of Akt in fibroblasts from IPF explants / expression of PDGFR-β mRNA and protein in fibroblasts from IPF explants / miR-34a levels in fibroblasts isolated from IPF explants / p53 levels in fibroblasts isolated from IPF explants / uPA expression in fibroblasts isolated from IPF explants / uPAR expression in fibroblasts isolated from IPF explants / ECM synthetic rates of FL-lung explants: nutlin-3a 10 μM or CSP-4 10 nM, 3 to 7 days; for ECM synthetic rates of FL-lung explants: vs untreated, vehicle or CP; for production of ECM of fibroblasts from IPF explants / rate of proliferation of fibroblasts from IPF explants: vs FL-fibroblasts from untreated, vehicle- or CP-treated controls. The protocol: Freshly dissected FL-lung tissues from IPF patients are treated with nutlin-3a (10 μM) or CSP-4 (10 nM) for 3 to 7 days (see FIG. 13). Lung tissues are homogenized and tested for changes in ECM (hydroxyproline and desmosine). Controls include fibrotic lung (FL)-tissues from IPF patients treated with vehicle or control peptide, CP or naive lung tissues maintained in culture medium. Other controls include NL-tissues resected from histologically “normal” lungs. De-identified patient (“normal” and IPF) lungs that were not suitable for transplantation and donated for medical research are obtained through HAM (Edison, NJ) and the NDRI (Philadelphia, PA) and used for ex vivo studies. Fibroblasts are isolated from these tissues and analyzed for changes in p53, uPA, uPAR and PAI-1 expression, production of ECM and viability. Changes in rate of ECM synthesis are also measured. FL-tissue explants from patients with IPF have elevated synthesis of ECM when compared to expression levels in the slices of NL-tissues from control subjects. […] Phosphorylation of Akt and expression of PDGFR-β mRNA and protein also are reduced in fibroblasts from IPF explants treated with nutlin-3a or CSP-4.

Assay [4] concerns LPS-stimulated neutrophils and macrophages. The settings on record: cited from earlier work.
Assay [5] has as its system LPS-induced ALI. The following applies: mice; cited from earlier work.
The test system of assay [6] is FL-fibroblasts. The assay is described as follows: Deletional analysis of CSP: peptide fragments tested on FL-fibroblasts for changes in p53, uPA, PAI-1 and col-I. In kind it is cell-based, human. The protocol: FIGS. 6A-6D. CSP (CSP4) augments p53 expression via induction of miR-34a in FL(IPF)-fibroblasts. (FIG. 6A) NL- and FL-fibroblasts (n=3) were treated with PBS, CSP-4 (CSP) or control peptide (CP). RNA was analyzed for miR-34a by real-time PCR. (FIG. 6B) FL-fibroblasts were treated with PBS or CSP or CP with or without miR-34a antisense (miR-34a-AS) or pre-miR-34a or control miRNA (Ctr-miR). Conditioned media (CM) were immunoblotted for PAI-1 and lysates (CL) for p53 and β-actin. (FIG. 6C) FL-fibroblasts were treated with PBS or CSP or CP in the presence or absence of miR-34a-AS, pre-miR-34a or Ctr-miR. RNA was analyzed for changes in miR-34a by real-time PCR. (FIG. 6D) A series of overlapping deletions were made in CSP and these peptides were used to treat FL-fibroblasts with. The peptide sequences were CSP (SEQ ID NO:2), CSP-2: DGIWKAS (SEQ ID NO:12), CSP-3: KYWFYR (SEQ ID NO:13), CSP-4 (SEQ ID NO:1), and CP (SEQ ID NO:5). Changes in p53, uPA, PAI-1 and col-I were later assessed to identify the minimum amino acids required for the CSP effects.
A series of overlapping deletions were made in CSP and these peptide fragments were tested on FL-fibroblasts for changes in p53, uPA, PAI-1 and col-I (FIG. 6D).

Assay [7] relates to ATII cell. The settings on record: BLM- or cigarette smoke-induced; cited from earlier work.

In the case of `COc1ccc(C2=NC(c3ccc(Cl)cc3)C(c3ccc(Cl)cc3)N2C(=O)N2CCNC(=O)C2)c(OC(C)C)c1` (centres unmarked) [nutlin-3a, 4-2-4,5-dihydro-1H-imidazole-1-piperazin-2-one], in assay [1], the “PAI-1 protein and mRNA expression” value is “marked induction”; the “col-I protein and mRNA expression” value is “significant suppressed”; the p53 protein entry is listed as “marked induction”; the “uPA protein and mRNA expression” value is given as “significant suppressed”. For the same compound, the “fibrosis ex vivo (changes in col-I and α-SMA)” value in assay [2] is recorded as “inhibited”. Further, in assay [3], the “PAI-1 levels in fibroblasts isolated from IPF explants” value is “elevated levels”; the “Phosphorylation of Akt in fibroblasts from IPF explants” value is reported as “reduced”; the “expression of PDGFR-β mRNA and protein in fibroblasts from IPF explants” value was “reduced”; the “miR-34a levels in fibroblasts isolated from IPF explants” value is given as “elevated levels”. In assay [3], the “p53 levels in fibroblasts isolated from IPF explants” value is given as “elevated levels”, the “uPA expression in fibroblasts isolated from IPF explants” value is on record as “reduced”, the “uPAR expression in fibroblasts isolated from IPF explants” value was “reduced” and the “ECM synthetic rates of FL-lung explants” value was “significantly reduced”. In assay [3], the “production of ECM of fibroblasts from IPF explants” value is recorded as “significantly lower” and the “rate of proliferation of fibroblasts from IPF explants” value is recorded as “significantly lower”. In addition, in assay [4], the “NF-κB DNA-binding activity” value is given as “attenuated” and the “production of proinflammatory cytokines” value is reported as “attenuated”. In addition, in assay [5], the “severity of LPS-induced ALI” value is on record as “reduced”.
Regarding FTTFTVT [CSP-4], the “activity in deletional analysis of the CSP 20mer (changes in p53, uPA, PAI-1 and col-I)” value in assay [6] is “had the activity of the full length peptide”. Besides, the “fibrosis ex vivo (changes in col-I and α-SMA)” value in assay [2] is “inhibited”. Moreover, in assay [3], the “PAI-1 levels in fibroblasts isolated from IPF explants” value is listed as “elevated levels”; the “Phosphorylation of Akt in fibroblasts from IPF explants” value is reported as “reduced”; the “expression of PDGFR-β mRNA and protein in fibroblasts from IPF explants” value is recorded as “reduced”; the “miR-34a levels in fibroblasts isolated from IPF explants” value was “elevated levels”. Besides, in assay [3], the “p53 levels in fibroblasts isolated from IPF explants” value is recorded as “elevated levels”, the “uPA expression in fibroblasts isolated from IPF explants” value is recorded as “reduced”, the “uPAR expression in fibroblasts isolated from IPF explants” value is listed as “reduced” and the “ECM synthetic rates of FL-lung explants” value is given as “significantly reduced”. In addition, in assay [3], the “production of ECM of fibroblasts from IPF explants” value is listed as “significantly lower” and the “rate of proliferation of fibroblasts from IPF explants” value is reported as “significantly lower”. Also, in assay [7], the ATII cell apoptosis entry is given as “inhibited” and the “ATII cell p53 expression” value is recorded as “inhibited”.
